According to article PMC6335623, “A computationally designed binding mode flip leads to a novel class of potent tri-vector cyclophilin inhibitors” (Chemical Science, 2018):
Like-named read-outs stand apart in the source and are kept apart here.

Columns and labels:
CypA = target: T1, CypA (Homo sapiens, UniProt P62937); test: Isothermal titration calorimetry (ITC), ester series, direct titration; settings: 25 °C, 50 mM phosphate buffer pH 6.5; single experiments; uncertainties from fit to one-site binding model; n.b. = no binding observed at the maximum concentration tested
T1 construct: His-tag (TEV-cleavable) (cleaved yes); made in house; host or cells: E. coli C41 BL21(DE3) ('C41 BL21(DH3)' [sic]); plasmid from the Edinburgh Protein Production Facility
Experimental: The molecular weights of HisCypA and free CypA are 20.893 and 18.070 kDa, respectively. Protein concentration was determined by measuring the absorbance at 280 nm and the extinction coefficients 14440 and 8480 M-1 cm-1, respectively.
Isothermal Titration Calorimetry (ITC)
ITC1 – Ester series: Instrument and experimental setup
All ITC experiments for the ester series compounds were carried out at 25 °C on a MicroCal Auto iTC200 (GE Healthcare) instrument. The buffer used in the titrations of the compounds belonging to the ester series (1 – 12) was 50 mM phosphate buffer, pH 6.5 and the concentration of DMSO was 2% v/v for all the compounds, unless otherwise stated in Table S1. Final compound solutions were heated to 65 °C and/or sonicated prior to the experiment. Each experiment consisted of an initial injection of 0.4 μL followed by nineteen 2 μL injections and in most of cases for these compounds, the “continue injections” protocol was used leaving the cell intact and performing a second series of titrations using the above protocol to achieve saturation. Control experiments were performed, where each compound was titrated into buffer and when small amount of heat was detected due to heat of dilution, it was subtracted when processing the data using a linear fit method. A more detailed setup for each experiment is depicted in Table S6. In all cases the first injection was omitted from the data processing. All data were analysed using the MicroCal PEAQ-ITC […]
(Wiseman constant) is very small, a fixed stoichiometry to 1 was applied during the non-linear regression of […]
the duration of the experiment.

His-CypA = target: T2, His-CypA (Homo sapiens, UniProt P62937); test: Surface plasmon resonance (SPR) kinetic titration, BIAcore T200; format: binding
T2 construct: made in house; host or cells: E. coli C41 BL21(DE3) ('C41 BL21(DH3)' [sic]); plasmid from the Edinburgh Protein Production Facility
Experimental: (§1) injection protocol (Fig. S9B). […]
(§2) using the same instrument parameters was performed (Fig. S9A).
(§3) Surface Plasmon Resonance (SPR)
(§4) SPR1 – SPR equipment and reagents
(§5) SPR measurements were performed on a BIAcore T200 instrument (GE Healthcare). Ni2+- nitrilotriacetic acid (NTA) sensor chips, 1-ethyl-3-(3- diaminopropyl) carbodiimide hydrochloride (EDC) and Nhydroxysuccinimide (NHS) were purchased from GE Healthcare.
(§6) SPR2 – Immobilization and covalent stabilizations of His-Cyps
(§7) Pure His-cyclophilins were immobilized and covalently stabilized on the NTA sensor chip according to the protocol described [Wear et al., 2017, FEBS OpenBio], using 200 nM concentrations of each protein, in Running Buffer (PBS, pH 7.4; 0.05% surfactant P20, 2% v/v ethanol; 50 µM EDTA), at 30 µl min-1 with 60 second contact times on the activated NTA surfaces.
(§8) (1 picture or pasted object on this page, not shown here)
(§9) Specific surface protein activity was assayed by passing saturating […]
(§10) SPR3 – Kinetic titration experiments
(§11) Buffer (PBS, pH 7.4, 50 µM mM EDTA; 0.05 % v/v surfactant P20; 2 % v/ v ethanol), were injected over the sensor surface, at 100 µl.min -1 with a 90 s contact time and a 90 s dissociation time. The sensor surface was regenerated between experiments by dissociating any formed complex in running buffer for at least 1,200 seconds. The apparent on-rate (k+) and off-rate (k-) constants and the equilibrium dissociation constant (K d) were calculated from reference corrected sensorgrams by global fitting of a 1:1 binding model, including a mass transport term, using analysis software ( v.2.02, GE Healthcare) provided with the BIAcore T200 […]
(§12) Buffer (PBS, pH 7.4, 50 µM mM EDTA; 0.05 % v/v surfactant P20; 2 % v/v ethanol), were injected over the sensor surface, at 100 µl.min-1 with a 15 s contact time and a 600 s dissociation time. The sensor surface was […]

His-CypD = target: T3, His-CypD (Homo sapiens, UniProt P30405); test: as above; format: binding; settings: 25 °C, mean ± 1σ from three repeat experiments
T3 construct: made in house; host or cells: E. coli C41 BL21(DE3) ('C41 BL21(DH3)' [sic]); plasmid from the Edinburgh Protein Production Facility
Experimental: as §1, §2, §3, §4, §5, §6, §7, §8, §9, §10, §11, §12

His-CypB = target: T4, His-CypB (Homo sapiens, UniProt P23284); test: biochemical; format: binding; settings: 25 °C, mean ± 1σ from three repeat experiments; read-out: Kd (SPR) CypB
T4 construct: made in house; host or cells: E. coli C41 BL21(DE3) ('C41 BL21(DH3)' [sic]); plasmid from the Edinburgh Protein Production Facility
Experimental: as §1, §2, §3, §4, §5, §6, §7
(1 picture or pasted object on this page, not shown here) […]
as §11, with “The sensor surface was regenerated between experiments by dissociating any formed complex in running buffer for at least 1,200 seconds.” left out

MDA-MB-231_NLG cells = test: cells; format: cell-based; settings: 120 hours treatment
Experimental: The tumorigenic, breast, epithelial adenocarcinoma cell lines MDA-MB-231_NLG and the normal, lung fibroblast cell line, IMR90 were cultured as adherent monolayers in DMEM with 10% volume FBS in an atmosphere with 5% CO2 and 95% humidity and were routinely sub-cultured upon reaching 80-90% confluence. MDA-MB-231_NLG cells are a variant of MDA-MB-231 cells, expressing nuclear-restricted green fluorescent protein; they were produced by stable transduction of MDA-MB-231 cells with NucLight Green lentivirus (Essen Bioscience), following the manufacturer’s protocol.
Image-based Cell Viability Assays
Cells were seeded at a density of 500 cells per well in cell culture medium in 384-well cell culture plates and allowed to adhere overnight (about 16 hours), incubated in a humidified atmosphere with 5% CO2.
Subsequently, cell culture medium was refreshed, supplemented with Draq 7 (3µM final concentration) and test compound at the indicated concentrations with three wells being treated for each condition tested. Cells were then returned to the cell culture incubator and imaged with a 10X objective every 3 hours for 120 hours using an IncuCyte ZOOM microscope from Essen Bioscience.
Using the IncuCyte ZOOM software, custom image analysis procedures were developed and applied for each cell line to determine cell confluency, cell number and number of dead cells over the time course of the experiment. Phase contrast was used to determine relative area of each image occupied by cells (confluency), while green nuclear counts were used to determine number of MDA-MB-231_NLG cells and red nuclear counts were used to determine number of dead (Draq7-positive) cells. […]
growth inhibition) being determined by fitting non-linear regression curves to the data and extrapolating the required values using GraphPad Prism 6. Statistical analyses in cell viability assays to compare the effect of compound treatment to treatment with vehicle were performed using GraphPad Prism 6 (2-way ANOVA with Bonferroni correction post hoc).

T1 sequence (P62937 whole entry): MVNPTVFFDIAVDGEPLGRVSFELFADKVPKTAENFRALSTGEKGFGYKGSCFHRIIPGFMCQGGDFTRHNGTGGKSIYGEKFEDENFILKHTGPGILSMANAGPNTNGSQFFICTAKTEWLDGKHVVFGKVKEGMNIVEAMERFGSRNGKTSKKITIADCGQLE
T4 sequence (P23284 34-216): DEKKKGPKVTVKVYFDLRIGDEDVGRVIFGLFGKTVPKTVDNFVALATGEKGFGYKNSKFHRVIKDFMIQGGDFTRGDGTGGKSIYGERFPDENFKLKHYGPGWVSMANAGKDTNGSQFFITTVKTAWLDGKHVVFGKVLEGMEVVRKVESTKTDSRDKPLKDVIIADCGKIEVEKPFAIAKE
T3 sequence (P30405 30-207): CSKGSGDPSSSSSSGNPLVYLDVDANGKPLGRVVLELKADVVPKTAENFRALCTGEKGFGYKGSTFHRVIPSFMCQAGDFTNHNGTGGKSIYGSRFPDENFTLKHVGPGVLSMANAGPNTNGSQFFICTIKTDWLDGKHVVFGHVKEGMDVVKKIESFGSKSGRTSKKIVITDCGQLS
T2 sequence (P62937 whole entry): as the sequence (P62937 whole entry) above

CCOC(=O)CNC(=O)N(Cc1ccc(N)cc1)C(C)C.Cl [Compound 3]
CypA Kd (ITC) (CypA): n.b and n.b. and inactive

CCCN(Cc1ccc(N)cc1)C(=O)NCC(=O)OCC [Compound 4]
Kd (CypA): 266 ± 3 µM

CCOC(=O)CNC(=O)N(CC#N)Cc1ccc(N)cc1.Cl [Compound 6]
CypA Kd (ITC) (CypA): very weak binders | Kd (CypA): 993 ± 20 µM

CCOC(=O)CNC(=O)N(Cc1ccc(N)cc1)CC1CC1.Cl [Compound 7]
CypA Kd (ITC) (CypA): n.b and n.b. and very weak binders

CCOC(=O)CNC(=O)N(Cc1ccc(N)cc1)C1CCNCC1.Cl.Cl [Compound 11]
CypA Kd (ITC) (CypA): n.b and n.b. and inactive

C#CCN(Cc1ccc(N)cc1)C(=O)NCC(=O)N1CCCC1c1ccccc1Br (stereo not drawn) [Compound 13]
Kd (His-CypA; 25 °C, mean ± 1σ from three repeat experiments, read-out: Kd (SPR) CypA): 3.2 ± 1.3 µM | Kd (His-CypD): 0.2 ± 0.1 µM | Kd (His-CypB): 1.4 ± 0.4 µM | cell death (dead cells) (MDA-MB-231_NLG cells): Negligible cell death | GI50 (MDA-MB-231_NLG cells; Homo sapiens, mean with 95% CI [lower limit, upper limit], three independent experiments, read-out: GI50, growth inhibition): 5.13 µM

Cl.Cn1cc(CN(Cc2ccc(N)cc2)C(=O)NCC(=O)N2CCCC2c2ccccc2Br)nn1 (stereo not drawn) [Compound 14]
GI50, growth inhibition (MDA-MB-231_NLG cells; mean with 95% CI [lower limit, upper limit], three independent experiments): inactive

CCOC(=O)Cn1cc(CN(Cc2ccc(N)cc2)C(=O)NCC(=O)N2CCCC2c2ccccc2Br)nn1 (stereo not drawn) [Compound 16]
Kd (His-CypA): 4.3 ± 1 µM | Kd (His-CypD): 1 ± 0.4 µM | Kd (His-CypB): 1.9 ± 0.9 µM
